Test results as given in paper PMC8445441, “Elucidating the mechanism by which synthetic helper peptides sensitize Pseudomonas aeruginosa to multiple antibiotics” (PLoS Pathogens, 2021).
Read-outs that look alike come from different tables or passages of the source. Values belong to the compound of their own block, whether it stands above or below them.

Experiments:
[1] = test system: P. aeruginosa HM-214; settings: strain HM-214; antibiotic + D-11 (MICb/MICbc 128/4)
Method in brief: (§1)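 CLSI broth dilution; MHB; ~1 × 10^6 CFU/mL suspension mixed equal volume with drug; 37 °C for 18 h; visual read; triplicate. Broth sometimes supplemented with PG, PE, PC, CL, LPS, MgCl2, CaCl2 or PAβN.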

[2] = test system: clinical P. aeruginosa isolates; assay: microbe, parasite or virus in culture; settings: Pseudomonas aeruginosa, 18 h, antibiotic alone
Method in brief: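 MIC is the lowest drug concentration showing no visible growth after 18 h at 37 °C. Two-fold dilutions in MHB were combined with an equal volume of bacterial suspension (about 1 × 10^6 CFU/mL), following CLSI broth microdilution, in triplicate.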

[3] = test system: P. aeruginosa AUMC-Pa-3; assay: microbe, parasite or virus in culture; settings: strain AUMC-Pa-3; for FICI: antibiotic + D-11 (MICb/MICbc 128/4); for MICa: MIC of the antibiotic: antibiotic alone; for MICa: MIC of the antibiotic / MICac: MIC of the antibiotic in the combination: unit not given; for MICac: MIC of the antibiotic in the combination: with D-11 at MICbc 4
Method in brief: as §1

[4] = test system: P. aeruginosa AUMC-Pa-5; assay: microbe, parasite or virus in culture; settings: for FICI: antibiotic + D-11 (MICb/MICbc 64/4); for MICac: MIC of the antibiotic in the combination: with D-11 at MICbc 4
Method in brief: as §1

[5] = test system: P. aeruginosa AUMC-Pa-6; assay: microbe, parasite or virus in culture; settings: strain AUMC-Pa-6; for FICI: antibiotic + D-11 (MICb/MICbc 64/4); for MICa: MIC of the antibiotic: antibiotic alone; for MICa: MIC of the antibiotic / MICac: MIC of the antibiotic in the combination: unit not given; for MICac: MIC of the antibiotic in the combination: with D-11 at MICbc 4
Method in brief: as §1

[6] = test system: P. aeruginosa PAO1; assay: microbe, parasite or virus in culture; settings: PAO1
Method in brief: as §1

[7] = test system: P. aeruginosa AUMC-Pa-4; assay: microbe, parasite or virus in culture; settings: strain AUMC-Pa-4; for FICI: antibiotic + D-11 (MICb/MICbc 128/4); for MICa: MIC of the antibiotic: antibiotic alone; for MICa: MIC of the antibiotic / MICac: MIC of the antibiotic in the combination: unit not given; for MICac: MIC of the antibiotic in the combination: with D-11 at MICbc 4
Method in brief: as §1

[8] = test system: P. aeruginosa AUMC-Pa-2; settings: strain AUMC-Pa-2; antibiotic + D-11 (MICb/MICbc 64/4)
Method in brief: as §1

[9] = test system: P. aeruginosa AUMC-Pa-1; settings: strain AUMC-Pa-1; antibiotic + D-11 (MICb/MICbc 128/4)
Method in brief: as §1

[10] = test system: P. aeruginosa PAK; assay: microbe, parasite or virus in culture; set-up: MICa: MIC of the antibiotic / MICac: MIC of the antibiotic in the combination: unit not given beside the values; settings: strain PAK; for FICI: antibiotic + D-11 (MICb/MICbc 64/4); for MICa: MIC of the antibiotic: antibiotic alone; for MICa: MIC of the antibiotic / MICac: MIC of the antibiotic in the combination: unit not given; for MICac: MIC of the antibiotic in the combination: with D-11 at MICbc 4
Method in brief: as §1

[11] = test system: P. aeruginosa NR-31041; assay: microbe, parasite or virus in culture; set-up: MICa: MIC of the antibiotic / MICac: MIC of the antibiotic in the combination: unit not given beside the values; settings: strain NR-31041; for FICI: antibiotic + D-11 (MICb/MICbc 64/4); for MICa: MIC of the antibiotic: antibiotic alone; for MICa: MIC of the antibiotic / MICac: MIC of the antibiotic in the combination: unit not given; for MICac: MIC of the antibiotic in the combination: with D-11 at MICbc 4
Method in brief: as §1

[12] = test system: P. aeruginosa PA14; assay: microbe, parasite or virus in culture; set-up: MICa: MIC of the antibiotic / MICac: MIC of the antibiotic in the combination: unit not given beside the values; settings: strain PA14; for FICI: antibiotic + D-11 (MICb/MICbc 128/4); for MICa: MIC of the antibiotic: antibiotic alone; for MICa: MIC of the antibiotic / MICac: MIC of the antibiotic in the combination: unit not given; for MICac: MIC of the antibiotic in the combination: with D-11 at MICbc 4
Method in brief: as §1

[13] = test system: P. aeruginosa ATCC27853; assay: microbe, parasite or virus in culture; set-up: MICa: MIC of the antibiotic / MICac: MIC of the antibiotic in the combination: unit not given beside the values; settings: strain ATCC27853; for FICI: antibiotic + D-11 (MICb/MICbc 32/4)
Method in brief: as §1

[14] = test system: P. aeruginosa NR-31040; assay: microbe, parasite or virus in culture; set-up: MICa: MIC of the antibiotic / MICac: MIC of the antibiotic in the combination: unit not given beside the values; settings: strain NR-31040; for FICI: antibiotic + D-11 (MICb/MICbc 128/4); for MICa: MIC of the antibiotic: antibiotic alone; for MICa: MIC of the antibiotic / MICac: MIC of the antibiotic in the combination: unit not given; for MICac: MIC of the antibiotic in the combination: with D-11 at MICbc 4
Method in brief: as §1

[15] = read-out: Antibiotic sensibility (MIC) of clinical P. aeruginosa isolate AUMC-Pa-1, strain AUMC-Pa-1
[16] = read-out: Antibiotic sensibility (MIC) of clinical P. aeruginosa isolate AUMC-Pa-2, strain AUMC-Pa-2
[17] = read-out: Antibiotic sensibility (MIC) of clinical P. aeruginosa isolate AUMC-Pa-3, strain AUMC-Pa-3
[18] = read-out: Antibiotic sensibility (MIC) of clinical P. aeruginosa isolate AUMC-Pa-4, strain AUMC-Pa-4
[19] = read-out: Antibiotic sensibility (MIC) of clinical P. aeruginosa isolate AUMC-Pa-5, strain AUMC-Pa-5
[20] = read-out: Antibiotic sensibility (MIC) of clinical P. aeruginosa isolate AUMC-Pa-6, strain AUMC-Pa-6
[21] = read-out: Antibiotic sensibility (MIC) of clinical P. aeruginosa isolate HM-214, strain HM-214
[22] = read-out: Antibiotic sensibility (MIC) of clinical P. aeruginosa isolate NR-31040, strain NR-31040
[23] = read-out: Antibiotic sensibility (MIC) of clinical P. aeruginosa isolate NR-31041, strain NR-31041
[24] = strain AUMC-Pa-5, unit not given

- MIC [2, 15]: > 128 µM
- MIC [2, 16]: 128 µM
- MIC [2, 17]: 128 µM
- MIC [2, 18]: 128 µM
- MIC [2, 19]: 128 µM
- MIC [2, 20]: 128 µM
- MIC [2, 21]: 128 µM
- MIC [2, 22]: 128 µM
- MIC [2, 23]: 128 µM
- MICa: MIC of the antibiotic [3]: 128
- MICac: MIC of the antibiotic in the combination [3]: 4
- MICa: MIC of the antibiotic ([4]; strain AUMC-Pa-5, antibiotic alone, unit not given): 128
- MICac: MIC of the antibiotic in the combination [4, 24]: 16
- MICa: MIC of the antibiotic [5]: 128
- MICac: MIC of the antibiotic in the combination [5]: 4
- MICac: the MIC for the antibiotic in the combination ([6]; S3 Table, with 2 μM D-11): 4 µM
- MICac: the MIC for the antibiotic in the combination ([6]; S3 Table, with 4 μM D-11): 4 µM
- MICa: the MIC of antibiotics ([6]; S3 Table, antibiotic alone): 128 µM
- MICa: MIC of the antibiotic [7]: 128
- MICac: MIC of the antibiotic in the combination [7]: 4
- MICa: MIC of the antibiotic [10]: 128
- MICac: MIC of the antibiotic in the combination [10]: 4
- MICa: MIC of the antibiotic [11]: 128
- MICac: MIC of the antibiotic in the combination [11]: 4
- MICa: MIC of the antibiotic [12]: 128
- MICac: MIC of the antibiotic in the combination [12]: 4
- MICa: MIC of the antibiotic [14]: 128
- MICac: MIC of the antibiotic in the combination [14]: 4
Compound: O=C(N[C@H](CO)[C@H](O)c1ccc([N+](=O)[O-])cc1)C(Cl)Cl [Chloramphenicol]
- FICI [1]: 0.063
- FICI [3]: 0.063
- FICI ([4]; strain AUMC-Pa-5): 0.188
- FICI [5]: 0.094
- FICI ([6]; S3 Table, antibiotic + 2 μM D-11): 0.094
- FICI ([6]; S3 Table, antibiotic + 4 μM D-11): 0.156
- FICI [7]: 0.063
- FICI [8]: 0.094
- FICI [9]: 0.047
- FICI [10]: 0.094
- FICI [11]: 0.094
- FICI [12]: 0.063
- FICI [13]: 0.141
- FICI [14]: 0.063

- MIC [2, 15]: 128 µM
- MIC [2, 16]: 128 µM
- MIC [2, 17]: 128 µM
- MIC [2, 18]: 128 µM
- MIC [2, 19]: > 128 µM
- MIC [2, 20]: 128 µM
- MIC [2, 21]: 128 µM
- MIC [2, 22]: 128 µM
- MIC [2, 23]: 128 µM
- MICa: MIC of the antibiotic [3]: 128
- MICac: MIC of the antibiotic in the combination [3]: 8
- MIC ([4]; Pseudomonas aeruginosa, AUMCPA5, 18 h, read-out: MICa: MIC of the antibiotic): > 128 µM
- MICac: MIC of the antibiotic in the combination [4, 24]: 32
- MICa: MIC of the antibiotic [5]: 128
- MICac: MIC of the antibiotic in the combination [5]: 32
- MICa: the MIC of antibiotics ([6]; S1 Table, macrolide alone): 128 µM
- MICa: MIC of the antibiotic [7]: 128
- MICac: MIC of the antibiotic in the combination [7]: 32
- MICa: MIC of the antibiotic [10]: 128
- MICac: MIC of the antibiotic in the combination [10]: 16
- MICa: MIC of the antibiotic [11]: 128
- MICac: MIC of the antibiotic in the combination [11]: 16
- MICa: MIC of the antibiotic [12]: 128
- MICac: MIC of the antibiotic in the combination [12]: 32
- MICa: MIC of the antibiotic ([13]; antibiotic alone, unit not given): 128
- MICac: MIC of the antibiotic in the combination ([13]; with D-11 at MICbc 4, unit not given): 8
- MICa: MIC of the antibiotic [14]: 128
- MICac: MIC of the antibiotic in the combination [14]: 32
Compound: CC[C@H]1OC(=O)[C@H](C)[C@@H](O[C@H]2C[C@@](C)(OC)[C@@H](O)[C@H](C)O2)[C@H](C)[C@@H](O[C@@H]2O[C@H](C)C[C@H](N(C)C)[C@H]2O)[C@](C)(OC)C[C@@H](C)C(=O)[C@H](C)[C@@H](O)[C@]1(C)O [Clarithromycin]
- FICI [1]: 0.281
- FICI [3]: 0.094
- FICI ([4]; strain AUMC-Pa-5): 0.188
- FICI [5]: 0.313
- FICI [7]: 0.281
- FICI [8]: 0.313
- FICI [9]: 0.156
- FICI [10]: 0.188
- FICI [11]: 0.188
- FICI [12]: 0.281
- FICI [13]: 0.188
- FICI [14]: 0.281
